Measurements as given in ChEMBL document CHEMBL5252667, “Discovery and Optimization of a Novel Macrocyclic Amidinourea Series Active as Acidic Mammalian Chitinase Inhibitors” (ACS Med Chem Lett, 2023).
Values after ≈ are worked out from the molar mass of the structure shown.

Legend:
Candida = experiment: Antifungal activity against Candida spp.; assay type: functional
Chitotriosidase-1 [1] = target: T1, Chitotriosidase-1 (Homo sapiens, UniProt Q13231); experiment: Inhibition of human CHIT1 using 4-methylumbelliferyl-beta-D-N,N',N''-triacetylchitotriose as substrate assessed as substrate hydrolysis by measuring inhibition constant preincubated with compound for 20 mins and measured immediately after substrate addition by fluorescence based assay relative to control
Target sequence in this assay (Q13231 whole entry): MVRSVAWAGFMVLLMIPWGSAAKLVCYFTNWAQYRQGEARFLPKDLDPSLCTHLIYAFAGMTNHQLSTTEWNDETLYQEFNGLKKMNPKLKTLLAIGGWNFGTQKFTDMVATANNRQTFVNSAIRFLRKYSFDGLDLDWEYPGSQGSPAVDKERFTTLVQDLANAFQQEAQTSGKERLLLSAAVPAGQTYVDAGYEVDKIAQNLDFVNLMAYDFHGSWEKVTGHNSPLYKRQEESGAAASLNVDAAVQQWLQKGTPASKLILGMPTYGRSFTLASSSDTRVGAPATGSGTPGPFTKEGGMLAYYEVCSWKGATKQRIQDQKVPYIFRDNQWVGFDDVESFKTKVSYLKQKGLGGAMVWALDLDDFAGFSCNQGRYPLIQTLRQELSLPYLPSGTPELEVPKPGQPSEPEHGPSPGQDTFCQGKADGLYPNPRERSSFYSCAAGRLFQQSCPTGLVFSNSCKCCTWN

[2] = Metabolic stability in human liver microsomes assessed as parent compound remaining in the presence of NADPH generating system by HPLC-UVMS analysis; assay type: ADME, Microsome
[3] = Aqueous solubility of the compound by HPLC-UV/MS analysis; assay type: physicochemical; conditions: water (aqueous)
[4] = Apparent permeability of compound in phosphate buffer by PAMPA assay; assay type: ADME
Chitotriosidase-1 [5] = target: T1, Chitotriosidase-1; experiment: Inhibition of human CHIT1 using 4-methylumbelliferyl-beta-D-N,N',N''-triacetylchitotriose as substrate assessed as substrate hydrolysis at 10 uM preincubated with compound for 20 mins and measured immediately after substrate addition by fluorescence based assay relative to control
Target sequence in this assay (Q13231 22-466 limits assumed): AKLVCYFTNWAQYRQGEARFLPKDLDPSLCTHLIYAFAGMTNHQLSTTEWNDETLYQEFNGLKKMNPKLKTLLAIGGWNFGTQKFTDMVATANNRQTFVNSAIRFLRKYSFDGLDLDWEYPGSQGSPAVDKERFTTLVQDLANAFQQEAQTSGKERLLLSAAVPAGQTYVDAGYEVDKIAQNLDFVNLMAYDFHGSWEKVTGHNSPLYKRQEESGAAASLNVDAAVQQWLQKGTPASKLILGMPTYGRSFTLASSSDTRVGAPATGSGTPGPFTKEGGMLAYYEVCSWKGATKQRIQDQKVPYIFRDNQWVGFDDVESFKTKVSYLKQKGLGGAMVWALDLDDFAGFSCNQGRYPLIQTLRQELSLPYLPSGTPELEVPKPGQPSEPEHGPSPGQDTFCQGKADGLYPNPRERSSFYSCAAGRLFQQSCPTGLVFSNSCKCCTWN

[6] = target: Acidic mammalian chitinase (Homo sapiens, UniProt Q9BZP6); experiment: Inhibition of human AMCase using 4-methylumbelliferyl-beta-D-N,N',N''-triacetylchitotriose as substrate assessed as substrate hydrolysis by measuring inhibition constant preincubated with compound for 20 mins and measured immediately after substrate addition by fluorescence based assay
Acidic mammalian chitinase, sequence (Q9BZP6 whole entry): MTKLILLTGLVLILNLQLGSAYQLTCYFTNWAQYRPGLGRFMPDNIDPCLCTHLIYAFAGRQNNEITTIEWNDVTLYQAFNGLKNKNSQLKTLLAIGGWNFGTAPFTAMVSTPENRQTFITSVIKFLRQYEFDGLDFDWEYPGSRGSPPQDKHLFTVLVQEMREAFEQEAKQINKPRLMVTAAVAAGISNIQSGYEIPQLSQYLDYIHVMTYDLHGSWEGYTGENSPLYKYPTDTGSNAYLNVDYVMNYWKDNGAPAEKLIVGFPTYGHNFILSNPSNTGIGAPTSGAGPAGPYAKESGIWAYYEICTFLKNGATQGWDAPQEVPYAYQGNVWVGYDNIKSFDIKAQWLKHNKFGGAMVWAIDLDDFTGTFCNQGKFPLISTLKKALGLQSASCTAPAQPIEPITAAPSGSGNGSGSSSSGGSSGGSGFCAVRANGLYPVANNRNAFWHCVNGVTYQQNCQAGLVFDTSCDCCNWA

Compound	Ki (Chitotriosidase-1 [1])	Stability [2]	solubility [3]	Papp [4]	other results
C/C=C/CNC(=N)NCCCCCCCCN1CCCCCCOc2ccccc2CNC(=N)NC1=O					MIC (Candida): 1 µg/mL (≈ 0.00195 mM)
Cn1cnc2c1c(=O)n(CCCn1c(=O)c3nc[nH]c3n(C)c1=O)c(=O)n2C	0.0014 µM				inhibition (Chitotriosidase-1 [5]): 98%; Ki [6]: 0.26 µM
C/C=C/CNC(=N)NCCCCCCCCN1CCCc2ccccc2COc2ccccc2CNC(=N)NC1=O					MIC (Candida): 1 µg/mL (≈ 0.00178 mM)
CNC(=O)NC(=N)NCCCCCCCCN1CCCc2cc(Cl)ccc2COc2ccccc2CNC(=N)NC1=O		91.5%	23100 µg/mL (≈ 38.6 mM)	< 0.5 ×10⁻⁶ cm/s	
CNC(=O)NC(=N)NCCCCCCCCN1CCCCCCCCNC(=N)NC1=O	> 50 µM				
CNC(=O)NC(=N)NCCCCCCCCN1CCCc2ccc(OC(F)(F)F)cc2COc2ccccc2CNC(=N)NC1=O					Ki [6]: > 50 µM
C/C=C/CNC(=N)NCCCCCCCCN1CCCCCCCCNC(=N)NC1=O					MIC (Candida): 1 µg/mL (≈ 0.0023 mM)
CNC(=O)NC(=N)NCCCCCCCCN1CCCc2ccccc2COc2ccc(OC)cc2CNC(=N)NC1=O		98.7%	3080 µg/mL (≈ 5.17 mM)	< 0.5 ×10⁻⁶ cm/s	
CNC(=O)NC(=N)NCCCCCCCCN1CCCCCOc2ccccc2CNC(=N)NC1=O		80.9%	1810 µg/mL (≈ 3.6 mM)	< 0.5 ×10⁻⁶ cm/s	

Further lines, with some results ahead:

Ki (Chitotriosidase-1 [1])	Stability [2]	solubility [3]	Papp [4]	Compound	other results
> 50 µM				CNC(=O)NC(=N)NCCCCCCCCN1CCCc2ccccc2COc2cc(Cl)ccc2CNC(=N)NC1=O	
	98.5%	2850 µg/mL (≈ 4.9 mM)	< 0.5 ×10⁻⁶ cm/s	CNC(=O)NC(=N)NCCCCCCCCN1CCCc2ccc(F)cc2COc2ccccc2CNC(=N)NC1=O	
> 50 µM				CNC(=S)NC(=N)NCCCCCCCCN1CCCCCCOc2ccccc2CNC(=N)NC1=O	
> 50 µM				CNC(=O)NC(=N)NCCCCCCCCN1CCCc2ccccc2COc2cc(C)ccc2CNC(=N)NC1=O	
	76.2%	2010 µg/mL (≈ 3.57 mM)	< 0.5 ×10⁻⁶ cm/s	CNC(=O)NC(=N)NCCCCCCCCN1CCCc2ccccc2COc2ccccc2CNC(=N)NC1=O	
